Reference: patent US9266835B2, “Quinoline derivatives useful as CB-1 inverse agonists” (JANSSEN PHARMACEUTICA NV, priority 2014, dated 2016)

Key:
[1] = target: Human CB2R (Cannabinoid receptor 2) (Homo sapiens (Human), UniProt P34972); test: CB-2 in vitro cAMP assay (HTRF), inverse agonism; assay type: cell-based; settings: mean where tested more than once
[2] = Chronic DIO Mouse, first study: plasma and brain concentrations; assay type: in vivo; settings: male, DIO mice, 2 Hours Post Dose, Day 16, (Std Dev)
Procedure: (§1) Male 14-20-week old diet-induced obese mice were ordered from Taconic. Mice were started on a 60% fat diet (D12492, Research Diets, New Brunswick, N.J.) at 6 weeks of age. Mice were single-housed.
(§2) Test compounds were formulated in 10% PEG400 and 10% solutol. Test compounds were administered by oral gavage (5 ml kg^−1).
The test compound was formulated in 10% PEG400 and 10% solutol. DIO mice received vehicle, test compound (@ 1, 3 and 10 mg/kg) daily for 26 days. At the end of the experiment, the mice were euthanized and blood and tissues were collected.
Compound #44 was tested according to the procedure as described above, with results as listed in Table BIO-4A through Table BIO4-G, below.

[3] = target: Human CB1R (Cannabinoid receptor 1) (Homo sapiens (Human), UniProt P21554); test: CB-1 in vitro cAMP assay (HTRF), inverse agonism; assay type: cell-based; settings: mean where tested more than once
Human CB1R (Cannabinoid receptor 1), sequence (P21554 whole entry): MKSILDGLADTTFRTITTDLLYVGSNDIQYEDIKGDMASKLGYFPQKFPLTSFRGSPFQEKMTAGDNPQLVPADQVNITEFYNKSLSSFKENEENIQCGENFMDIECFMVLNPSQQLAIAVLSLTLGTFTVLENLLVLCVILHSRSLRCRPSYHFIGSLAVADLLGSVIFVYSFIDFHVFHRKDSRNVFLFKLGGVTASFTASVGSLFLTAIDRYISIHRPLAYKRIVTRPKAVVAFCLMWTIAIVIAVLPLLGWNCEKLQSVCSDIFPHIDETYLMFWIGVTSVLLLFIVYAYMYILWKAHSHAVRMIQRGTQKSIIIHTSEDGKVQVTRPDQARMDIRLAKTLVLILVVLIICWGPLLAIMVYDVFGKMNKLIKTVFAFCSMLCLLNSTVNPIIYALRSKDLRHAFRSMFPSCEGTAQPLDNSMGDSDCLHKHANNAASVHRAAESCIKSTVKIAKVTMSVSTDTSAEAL

[4] = Chronic DIO Mouse, second study: plasma and brain concentrations; assay type: in vivo; settings: DIO mice; for concentration at 2 h: male, mouse, oral
Procedure: as §1, §2
The test compound was formulated in 10% PEG400 and 10% solutol. […] At the end of the experiment, the mice were euthanized and blood and tissues were collected.
In a second study, Compound #44 was tested according to the procedure as described above, with results as listed in Tables BIO-5A through 5G, below.

Human CB2R (Cannabinoid receptor 2), sequence (P34972 whole entry): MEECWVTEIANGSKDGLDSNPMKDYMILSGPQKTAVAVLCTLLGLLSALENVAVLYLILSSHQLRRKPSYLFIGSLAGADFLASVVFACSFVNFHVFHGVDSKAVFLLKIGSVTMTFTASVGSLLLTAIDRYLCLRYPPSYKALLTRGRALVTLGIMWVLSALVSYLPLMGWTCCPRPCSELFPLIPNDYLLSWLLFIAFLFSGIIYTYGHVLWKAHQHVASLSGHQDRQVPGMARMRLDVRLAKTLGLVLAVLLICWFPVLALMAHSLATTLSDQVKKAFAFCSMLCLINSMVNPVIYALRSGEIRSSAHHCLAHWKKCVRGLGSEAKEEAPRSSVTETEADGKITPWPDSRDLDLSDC

With `O=c1cc(NC2CCN(S(=O)(=O)C(F)(F)F)CC2)c2cc(C(c3ccc(Cl)cc3)c3ccc(Cl)cc3)ccc2[nH]1` [Compound #44, 6-(bis(4-chlorophenyl)methyl)-4-(1-(trifluoromethylsulfonyl)piperidin-4-ylamino)quinolin-2(1H)-one] the EC50 [1] was 5230 nM, the concentration at 2 h ([2]; brain, 1 mg/kg daily oral, read-out: Brain concentration) was 59.4 ng/g and the concentration at 2 h ([2]; brain, 3 mg/kg daily oral, read-out: Brain concentration) was 114 ng/g. For the same compound, the concentration at 2 h ([2]; brain, 10 mg/kg daily oral, read-out: Brain concentration) was 244 ng/g, the concentration at 2 h ([2]; plasma, 1 mg/kg daily oral, read-out: Plasma concentration) was 31 ng/mL and the concentration at 2 h ([2]; plasma, 3 mg/kg daily oral, read-out: Plasma concentration) was 1510 ng/mL. For the same compound, the concentration at 2 h ([2]; plasma, 10 mg/kg daily oral, read-out: Plasma concentration) was 4440 ng/mL, the EC50 [3] was 8 nM and the “Brain concentration (Std Dev)” value ([4]; 0.3 mg/kg, Day 2, 2 hours post dose) was “BLOQ*”. For the same compound, the “Brain concentration (Std Dev)” value ([4]; 0.3 mg/kg, Day 23, 2 hours post dose) was “BLOQ**”, the “Brain concentration (Std Dev)” value ([4]; 1 mg/kg, Day 2, 2 hours post dose) was “BLOQ*” and the “Brain concentration (Std Dev)” value ([4]; 3 mg/kg, Day 2, 2 hours post dose) was “BLOQ*”. For the same compound, the concentration at 2 h ([4]; brain, 1 mg/kg, 1 mg/kg, Day 23, 2 hours post dose, read-out: Brain concentration (Std Dev)) was 36.8 ng/g, the concentration at 2 h ([4]; brain, 3 mg/kg, 3 mg/kg, Day 23, 2 hours post dose, read-out: Brain concentration (Std Dev)) was 100 ng/g and the concentration at 2 h ([4]; brain, 10 mg/kg, 10 mg/kg, Day 2, 2 hours post dose, read-out: Brain concentration (Std Dev)) was 62.3 ng/g. It also gave a concentration at 2 h ([4]; brain, 10 mg/kg, 10 mg/kg, Day 23, 2 hours post dose, read-out: Brain concentration (Std Dev)) of 201 ng/g, a concentration at 2 h ([4]; plasma, 0.3 mg/kg, 0.3 mg/kg, Day 2, 2 hours post dose, read-out: Plasma concentration (Std Dev)) of 61.3 ng/mL and a concentration at 2 h ([4]; plasma, 0.3 mg/kg, 0.3 mg/kg, Day 23, 2 hours post dose, read-out: Plasma concentration (Std Dev)) of 192 ng/mL. The concentration at 2 h ([4]; plasma, 1 mg/kg, 1 mg/kg, Day 2, 2 hours post dose, read-out: Plasma concentration (Std Dev)) was 310 ng/mL, the concentration at 2 h ([4]; plasma, 1 mg/kg, 1 mg/kg, Day 23, 2 hours post dose, read-out: Plasma concentration (Std Dev)) was 515 ng/mL and the concentration at 2 h ([4]; plasma, 3 mg/kg, 3 mg/kg, Day 2, 2 hours post dose, read-out: Plasma concentration (Std Dev)) was 759 ng/mL. The concentration at 2 h ([4]; plasma, 3 mg/kg, 3 mg/kg, Day 23, 2 hours post dose, read-out: Plasma concentration (Std Dev)) was 1560 ng/mL, the concentration at 2 h ([4]; plasma, 10 mg/kg, 10 mg/kg, Day 2, 2 hours post dose, read-out: Plasma concentration (Std Dev)) was 2490 ng/mL and the concentration at 2 h ([4]; plasma, 10 mg/kg, 10 mg/kg, Day 23, 2 hours post dose, read-out: Plasma concentration (Std Dev)) was 5280 ng/mL.
